Reference: patent publication US6914045B2, “Glycopeptide antibiotics” (Wyeth Holdings Corporation, priority 2001, dated 2005)

Key:
[1] = test system: Staphylococcus aureus-SMITH (GC 4543); assay: acute lethal infection in mice; format: in vivo; conditions: acute lethal infection, female CD-1 mice, intraperitoneal challenge, intravenous 30 min. after infection, 7 day survival
Method in brief: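 Mice (female CD-1, 20+/−2 gm) receive bacteria ip in broth or hog gastric mucin, then test agent iv after 30 min. Median effective dose is calculated from 7 day survival pooled across 3 tests.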

Escherichia coli = assay: in vitro antibacterial evaluation, MIC by broth dilution; format: cell-based; conditions: 18 hours at 35° C.
Method in brief: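 Broth dilution in Muller-Hinton II medium per NCCLS standard M7-A2, with an inoculum of 5×10^5 CFU/mL and antibiotic tested over 64-0.06 μg/mL. MIC was taken as the lowest concentration inhibiting visible growth.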

Staphylococcus sp. = assay: as above; format: cell-based; conditions: broth dilution, 18 hours at 35° C.
Method in brief: (§1)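 Inoculum 5×10^5 CFU/mL; concentrations 64 to 0.06 μg/mL; MIC defined as lowest inhibitory level. Conducted by broth dilution under NCCLS guidelines.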

Streptococcus sp. = assay: as above; format: cell-based; conditions: broth dilution, 18 hours at 35° C.
Method in brief: as §1

Enterococcus sp. = assay: as above; format: cell-based; conditions: broth dilution, 18 hours at 35° C.
Method in brief: as §1

[2] = anatomic pathology (histopathology of heart and kidney) in mice; format: in vivo; conditions: CD-1 mice, 20 mg/kg intravenously daily for 9 days, necropsy day 10, microscopic histopathology
Protocol: Samples of tissues from necropsied mice were formalin-fixed, paraffin-embedded, sectioned, stained with hematoxylin and eosin, and examined microscopically. Histopathologic findings were recorded. These findings were subjectively graded on a scale corresponding to slight, mild, moderate, marked and severe as compared to untreated controls.

CC(c1ccccc1)C1NC(=O)CNC(=O)C(CO)NC(=O)C(C(O)C2CN(Cc3ccc4ccccc4c3)C(=N)N2C2OC(CO)C(O)C(O)C2O)NC(=O)C(C(O)C2CNC(=N)N2)NC(=O)C(Cc2ccc(OC3OC(CO)C(OC4OC5COC6(OC5C(O)C4O)C4CC5CC(C4)CC6C5)C(O)C3O)cc2)NC1=O (stereo not drawn) [Example 78, Cyclo[glycyl-β-methylphenylalanyl-O-[4-O-[4,6-O-(2-adamantylidene)hexopyranosyl]hexopyranosyl]tyrosyl-3-(2-iminoimidazolidin-4-yl)seryl-3-[3-hexopyranosyl-2-imino-1-(2-naphthylmethyl)-imidazolidin-4-yl]serylseryl]]
2 mg/kg: median effective dose (ED50), Staphylococcus aureus-SMITH (GC 4543) [1]
++: Anatomical Pathology (Day 10), Kidney [2]
0.5 µg/mL: MIC Streptococcus pyogenes (GC 4563) (Streptococcus sp.) | MIC Streptococcus pyogenes (GC 4563) (Streptococcus sp.; strain GC 4563)
0: Anatomical Pathology (Day 10), Heart [2]
0.25 µg/mL: MIC Streptococcus pneumoniae (GC 1894) (Streptococcus sp.) | MIC Streptococcus pneumoniae (GC 1894) (Streptococcus sp.; strain GC 1894)
2 µg/mL: MIC Coagulase Negative Staphylococcus (GC 6257) (Staphylococcus sp.; strain GC 6257) | MIC Streptococcus pneumoniae (GC 4565) (Streptococcus sp.) | MIC Streptococcus pneumoniae (GC 4565) (Streptococcus sp.; strain GC 4565) | MIC Enterococcus faecium (GC 4557) (Enterococcus sp.; Enterococcus faecium (GC 4557)) | MIC Enterococcus faecium (GC 4557) (Enterococcus sp.)
16 µg/mL: MIC Enterococcus faecalis (GC 4554) (Enterococcus sp.; Enterococcus faecalis (GC 4554)) | MIC Enterococcus faecalis (GC 6189) (Enterococcus sp.; Enterococcus faecalis (GC 6189)) | MIC Enterococcus faecium (GC 4556) (Enterococcus sp.; Enterococcus faecium (GC 4556)) | MIC Enterococcus faecalis (GC 2242) (Enterococcus sp.) | MIC Enterococcus faecalis (GC 2691) (Enterococcus sp.) | MIC Enterococcus faecalis (GC 3059) (Enterococcus sp.) | MIC Enterococcus faecalis (GC 4554) (Enterococcus sp.) | MIC Enterococcus faecalis (GC 6189) (Enterococcus sp.) | MIC Enterococcus faecium (GC 4556) (Enterococcus sp.) | MIC Enterococcus faecalis (GC 2242) (Enterococcus sp.; strain GC 2242) | MIC Enterococcus faecalis (GC 2691) (Enterococcus sp.; strain GC 2691) | MIC Enterococcus faecalis (GC 3059) (Enterococcus sp.; strain GC 3059)
4 µg/mL: MIC Escherichia coli (GC 4560) (Escherichia coli) | MIC Staphylococcus aureus (GC 4541) (Staphylococcus sp.; strain GC 4541) | MIC Staphylococcus aureus-SMITH (GC 4543) (Staphylococcus sp.; strain GC 4543) | MIC Staphylococcus haemolyticus (GC 4546) (Staphylococcus sp.; strain GC 4546) | MIC Coagulase Negative Staphylococcus (GC 4547) (Staphylococcus sp.; strain GC 4547) | MIC Coagulase Negative Staphylococcus (GC 4548) (Staphylococcus sp.; strain GC 4548) | MIC Enterococcus avium (GC 4558) (Enterococcus sp.; Enterococcus avium (GC 4558)) | MIC Enterococcus avium (GC 4558) (Enterococcus sp.)
1 µg/mL: MIC Streptococcus agalactiae (GC 4564) (Streptococcus sp.) | MIC Streptococcus pneumoniae (ATCC 6301) (Streptococcus sp.) | MIC Streptococcus pneumoniae (ATCC 6301) (Streptococcus sp.; strain ATCC 6301) | MIC Streptococcus agalactiae (GC 4564) (Streptococcus sp.; strain GC 4564)
8 µg/mL: MIC Staphylococcus aureus (ATCC 29213) (Staphylococcus sp.; strain ATCC 29213) | MIC Staphylococcus aureus (GC 1131) (Staphylococcus sp.; strain GC 1131) | MIC Staphylococcus aureus (GC 3051) (Staphylococcus sp.; strain GC 3051) | MIC Staphylococcus aureus (GC 3053) (Staphylococcus sp.; strain GC 3053) | MIC Staphylococcus aureus (GC 4542) (Staphylococcus sp.; strain GC 4542) | MIC Staphylococcus aureus (GC 4544) (Staphylococcus sp.; strain GC 4544) | MIC Staphylococcus aureus (GC 4545) (Staphylococcus sp.; strain GC 4545) | MIC Coagulase Negative Staphylococcus (GC 4549) (Staphylococcus sp.; strain GC 4549) | MIC Coagulase Negative Staphylococcus (GC 4551) (Staphylococcus sp.; strain GC 4551) | MIC Enterococcus faecalis (ATCC 29212) (Enterococcus sp.; Enterococcus faecalis (ATCC 29212)) | MIC Enterococcus faecalis (GC 4552) (Enterococcus sp.; Enterococcus faecalis (GC 4552)) | MIC Enterococcus faecalis (GC 4553) (Enterococcus sp.; Enterococcus faecalis (GC 4553)) | MIC Enterococcus faecium (GC 2243) (Enterococcus sp.; Enterococcus faecium (GC 2243)) | MIC Enterococcus faecalis (ATCC 29212) (Enterococcus sp.) | MIC Enterococcus faecalis (GC 4552) (Enterococcus sp.) | MIC Enterococcus faecalis (GC 4553) (Enterococcus sp.) | MIC Enterococcus faecium (GC 2243) (Enterococcus sp.)
128 µg/mL: MIC Escherichia coli (ATCC 25922) (Escherichia coli) | MIC Escherichia coli (GC 4559) (Escherichia coli)
